These results are taken from patent US12595239B2, “Substituted isoxazoline derivatives” (BASF SE, priority 2021, dated 2026).

For one assay, the system named is Nephotettix virescens. Nature of the assay: B.9 Rice Green Leafhopper, rice seedling spray test. The format is in vivo. The settings on record: adults, after 72 hours, read-out: mortality in comparison with untreated controls. The method, then:
Four to five-week old rice seedlings with cut upper leaf portion were cleaned and washed 24 hours before spraying. The active compounds were formulated in 1:1 acetone:water (vol:vol), and 0.01% vol/vol surfactant (Kinetic) was added. Potted rice seedlings were sprayed with 5-6 ml test solution, air dried, covered with Mylar cages and inoculated with 10 adults. Treated rice plants were kept at about 28-29° C. and relative humidity of about 50-60%. Percent mortality was recorded after 72 hours.

A further assay relates to Spodoptera eridania. Nature of the assay: B.11 Southern Armyworm 2nd instar larvae, lima bean foliar spray test. The class given is in vivo. As to conditions: 96 h, 4 days after treatment, read-out: mortality in comparison with untreated controls. The method, boiled down:
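Compounds diluted in 50% acetone/water with 0.01% nonionic surfactant and electrostatically sprayed onto lima bean plants (Sieva) at 1st true leaf stage. After drying, 10–11 larvae per bagged pot, held at about 25 °C, 20–40% RH, 14:10 photoperiod. Mortality and reduced feeding scored at 4 days versus untreated plants.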

As usually defined, the mortality is the percentage killed. With `O=C(Nc1ncc(F)cc1F)c1cc(OC2=NOC(c3cc(Cl)c(F)c(Cl)c3)(C(F)(F)F)C2)ccc1Cl` (centres unmarked) [II-8, 2-chloro-5-[[5-(3,5-dichloro-4-fluoro-phenyl)-5-(trifluoromethyl)-4H-isoxazol-3-yl]oxy]-N-(3,5-difluoro-2-pyridyl)benzamide], the mortality at 300 ppm in the assay with Nephotettix virescens and with Spodoptera eridania was no less than 75% each time.
